Experimental data from patent publication US20080015255A1, “Pharmaceutical Compositions Based on Fluorinated Sulphamides and Sulphinimides” (CENTRE NATIONAL DE LA RECHERCHE SCIENTIFIQUE(C.N.R.S.), priority 2004, published 2008).

Biological target: bovine carbonic anhydrase (Bos taurus, UniProt P00921)
Experiment: Inhibition of bovine carbonic anhydrase esterase activity (hydrolysis of p-nitrophenyl acetate, UV 348 nm)
Settings: for inhibition with respect to carboanhydrase, in words: comparable with or even superior to that of acetazolamide; for % inhibition of the hydrolysis of nitrophenyl acetate (NPA) catalyzed by carbonic anhydrase: 25° C.

Sequence of bovine carbonic anhydrase (P00921 whole entry): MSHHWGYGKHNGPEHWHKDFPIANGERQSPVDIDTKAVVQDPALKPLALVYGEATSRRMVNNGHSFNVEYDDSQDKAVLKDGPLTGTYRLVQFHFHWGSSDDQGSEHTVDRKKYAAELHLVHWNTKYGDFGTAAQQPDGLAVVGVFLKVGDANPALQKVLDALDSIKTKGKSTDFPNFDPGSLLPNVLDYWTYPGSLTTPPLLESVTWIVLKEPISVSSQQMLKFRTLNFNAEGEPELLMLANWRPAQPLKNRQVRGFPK

% inhibition of the hydrolysis of nitrophenyl acetate (NPA) catalyzed by carbonic anhydrase (inhibitor 1.35 10^−6 mol/l) [%] | % inhibition of the hydrolysis of nitrophenyl acetate (NPA) catalyzed by carbonic anhydrase (inhibitor 1.35 10^−4 mol/l) [%] | Compound | inhibition with respect to carboanhydrase, in words | % inhibition of the hydrolysis of nitrophenyl acetate (NPA) catalyzed by carbonic anhydrase (inhibitor 1.35 10^−7 mol/l) [%] | % inhibition of the hydrolysis of nitrophenyl acetate (NPA) catalyzed by carbonic anhydrase (inhibitor 1.35 10^−8 mol/l) [%]
78 | – | NS(=O)(=O)C(F)(F)C(F)(F)C(F)(F)C(F)(F)S(N)(=O)=O [(C2F4SO2NH2)2, perfluorobutane-1,4-disulfamide] | very considerable inhibition | 6 | 1
5 | 86 | CCCCCCCCS(N)(=O)=O [Example C8H17SO2NH2, n-octanesulfamide, reference compound] | – | – | –
36 | – | NS(=O)(=O)CCC(F)(F)C(F)(F)C(F)(F)C(F)(F)C(F)(F)C(F)(F)C(F)(F)C(F)(F)F [C8F17(CH2)2SO2NH2] | – | – | –
0 | 87 | O=S(=O)(NS(=O)(=O)C(F)(F)C(F)(F)C(F)(F)C(F)(F)C(F)(F)C(F)(F)F)C(F)(F)C(F)(F)C(F)(F)C(F)(F)F [(C6F13SO2)NH(C4F9SO2)] | – | – | –
0 | 85 | O=S(=O)(NS(=O)(=O)C(F)(F)C(F)(F)C(F)(F)C(F)(F)C(F)(F)C(F)(F)F)C(F)(F)C(F)(F)C(F)(F)C(F)(F)C(F)(F)C(F)(F)F [(C6F13SO2)2NH, bis(1,1,2,2,3,3,4,4,5,5,6,6,6)tridecafluoro-n-hexylsulfinimide] | – | – | –
0 | 97 | O=S(=O)(NS(=O)(=O)C(F)(F)C(F)(F)C(F)(F)C(F)(F)C(F)(F)C(F)(F)C(F)(F)C(F)(F)F)C(F)(F)C(F)(F)C(F)(F)C(F)(F)F [(C4F9SO2)NH(C8F17SO2)] | – | – | –
0 | 65 | O=S(=O)(NS(=O)(=O)C(F)(F)C(F)(F)C(F)(F)C(F)(F)F)C(F)(F)C(F)(F)C(F)(F)C(F)(F)F [(C4F9SO2)2NH] | – | – | –
0 | 73 | CCCCCCS(N)(=O)=O [Example C6H13SO2NH2, n-hexanesulfamide, reference compound] | – | – | –
0 | 89 | O=S(=O)(NS(=O)(=O)C(F)(F)C(F)(F)C(F)(F)C(F)(F)C(F)(F)C(F)(F)C(F)(F)C(F)(F)F)C(F)(F)C(F)(F)C(F)(F)C(F)(F)C(F)(F)C(F)(F)C(F)(F)C(F)(F)F [(C8F17SO2)2NH] | – | – | –
0 | 87 | O=S(=O)(NS(=O)(=O)C(F)(F)C(F)(F)C(F)(F)C(F)(F)C(F)(F)C(F)(F)C(F)(F)C(F)(F)F)C(F)(F)C(F)(F)C(F)(F)C(F)(F)C(F)(F)C(F)(F)F [(C8F17SO2)NH(C6F13SO2)] | – | – | –
80 | – | NS(=O)(=O)C(F)(F)C(F)(F)C(F)(F)C(F)(F)C(F)(F)C(F)(F)C(F)(F)F [Example C7F15SO2NH2] | – | 0 | –

Compound | % inhibition of the hydrolysis of nitrophenyl acetate (NPA) catalyzed by carbonic anhydrase (inhibitor 1.35 10^−6 mol/l) [%] | % inhibition of the hydrolysis of nitrophenyl acetate (NPA) catalyzed by carbonic anhydrase (inhibitor 1.35 10^−4 mol/l) [%] | inhibition with respect to carboanhydrase, in words | % inhibition of the hydrolysis of nitrophenyl acetate (NPA) catalyzed by carbonic anhydrase (inhibitor 1.35 10^−7 mol/l) [%] | % inhibition of the hydrolysis of nitrophenyl acetate (NPA) catalyzed by carbonic anhydrase (inhibitor 1.35 10^−8 mol/l) [%]
[NH-]S(=O)(=O)C(F)(F)C(F)(F)C(F)(F)C(F)(F)C(F)(F)C(F)(F)C(F)(F)C(F)(F)F.[Na+] [C8F17SO2NH^−+Na, sodium 1,1,2,2,3,3,4,4,5,5,6,6,7,7,8,8,8-heptadecafluoro-n-octylsulfamide anion] | 94 | – | very considerable inhibition | 40 | 17
[Li+].[NH-]S(=O)(=O)C(F)(F)C(F)(F)C(F)(F)C(F)(F)C(F)(F)C(F)(F)C(F)(F)C(F)(F)F [C8F17SO2NH^−+Li] | 85 | – | – | 3 | –
NS(=O)(=O)C(F)(F)C(F)(F)C(F)(F)C(F)(F)C(F)(F)C(F)(F)C(F)(F)C(F)(F)F [Example C8F17SO2NH2, 1,1,2,2,3,3,4,4,5,5,6,6,7,7,8,8,8-heptadecafluoro-octanesulfamide] | 88 | – | very considerable inhibition | 7 | 5
